Tests used:
[1] = target: HR1–HR2 interaction (MBP-HR1 / ALP-HR2) of SARS-CoV-2 (Severe acute respiratory syndrome coronavirus 2, UniProt P0DTC2); assay: SPICA: inhibition of the HR1–HR2 interaction; type: binding; details: for IC50: pIC50 ± SD, 20 nM MBP-HR1 coated, 5 nM ALP-HR2, MES pH 6.4, OD630, SD; for inhibition of the HR1–HR2 interaction of SARS-CoV-2 (in words): negative controls
VeroE6/TMPRSS2 cells = assay: Cytotoxicity, MTT assay; type: cell-based, African green monkey; details: mock cell viability, 3 days

| SMILES | IC50 [1] | inhibition of the HR1–HR2 interaction of SARS-CoV-2 (in words) [1] | pCC50 ± SD (VeroE6/TMPRSS2 cells) |
| --- | --- | --- | --- |
| CC[C@H](C)[C@H](NC(=O)[C@H](C)NC(=O)[C@H](CCC(=O)O)NC(=O)[C@H](CCC(=O)O)NC(=O)[C@H](CC(C)C)NC(=O)[C@H](CCCCN)NC(=O)[C@H](CCCCN)NC(=O)[C@H](CCSC)NC(=O)[C@H](CCC(=O)O)NC(=O)[C@H](Cc1ccc(O)cc1)NC(=O)[C@H](CCC(=O)O)NC(=O)[C@H](CC(C)C)NC(=O)[C@H](CC(=O)O)NC(=O)[C@H](CC(C)C)NC(=O)[C@H](Cc1ccccc1)NC(=O)[C@@H](NC(=O)[C@@H](NC(=O)[C@H](CC(N)=O)NC(=O)[C@@H](NC(=O)[C@H](CCC(N)=O)NC(=O)[C@H](CC(=O)O)NC(=O)[C@H](CC(C)C)NC(=O)[C@@H](N)CO)[C@@H](C)CC)C(C)C)[C@@H](C)O)C(=O)N[C@@H](CCCCN)C(=O)N[C@@H](CCCCN)C(=O)N[C@@H](CC(C)C)C(=O)N[C@@H](CCC(=O)O)C(=O)N[C@@H](CCC(=O)O)C(=O)N[C@@H](CO)C(=O)N[C@@H](Cc1ccc(O)cc1)C(=O)N[C@H](C(=O)N[C@@H](CC(=O)O)C(=O)N[C@@H](CC(C)C)C(=O)N[C@@H](CCCCN)C(=O)N[C@@H](CCC(=O)O)C(=O)N[C@@H](CC(C)C)C(=O)O)[C@@H](C)CC [EK1] | 0.001 µM | – | – |
| Cc1nnnn1N=Cc1ccc(O)c(C(c2ccc(O)cc2)c2cc(C=Nn3nnnc3C)ccc2O)c1 (centres unmarked) [VP-14637] | 25.1 µM | failed to block the HR1–HR2 interaction | – |
| CCC(CC)COC(=O)[C@H](C)N[P@](=O)(OC[C@H]1O[C@@](C#N)(c2ccc3c(N)ncnn23)[C@H](O)[C@@H]1O)Oc1ccccc1 [remdesivir] | – | no inhibitory effect | 4.2 ± 0.1 |

From publication PMC10849125 (RSC Chemical Biology, 2023)
